The target in this experiment is T1, CSNK1A1 (CK1 alpha 1) (Homo sapiens, UniProt P48729).
T1 construct: purchased Thermo Fisher Scientific (Life Technologies) SelectScreen
Description: SelectScreen Z'LYTE. The class given is biochemical. How it is done:
The in vitro kinase selectivity of NU5455 was determined using the SelectScreen Broad Assay Panel (Thermo Fisher Scientific) involving activity and binding assays (Supplemental Table 1). […] Class IA PI3Ks were measured using the p85α subunit.
Kinase [ATP] % Assay Kinase [ATP] % Assay Kinase [ATP] % Assay Kinase [ATP] % Assay
DNA-PK Km app 98.3 Z LATS2 n/a 4.7 L KIT D820E n/a 1.3 L GSK3B (GSK3 beta) Km app -2.5 Z
PIK3C3 (hVPS34) Km app 85.9 A PRKCZ (PKC zeta) Km app 4.7 Z GRK1 n/a 1.3 L BMPR2 n/a -2.5 L
PIK3C2B (PI3K-C2 beta) 10 28.9 A FGFR1 Km app 4.7 Z BRSK2 n/a 1.2 L CDC42 BPB (MRCKB) Km app -2.5 Z
SNF1LK2 Km app 26.6 Z MINK1 Km app 4.6 Z NUAK1 (ARK5) Km app 1.2 A AMPK (A2/B2/G2) n/a -2.6 L
HCK Km app 18.0 Z CSF1R (FMS) Km app 4.3 Z CDK9/cyclin K n/a 1.0 L PRKG1 Km app -2.7 Z
NEK2 Km app 17.8 Z CSNK1G3 (CK1 gamma 3) Km app 4.2 Z NUAK2 n/a 1.0 L KIT T670E n/a -2.8 L
ALK Km app 17.3 Z STK32C (YANK3) n/a 4.2 L CDK2/cyclin O n/a 0.9 L ERBB4 (HER4) Km app -2.8 Z
FGFR3 K650M n/a 16.5 L STK22D (TSSK1) Km app 4.2 Z CAMKK2 (CaMKK beta) n/a 0.9 L PLK4 n/a -2.8 L
SIK3 n/a 16.1 L TAOK3 (JIK) n/a 4.2 L FGFR3 Km app 0.9 Z GRK7 Km app -3.0 Z
LYN A Km app 15.2 Z RPS6KA4 (MSK2) Km app 4.2 Z ULK2 n/a 0.9 L MAPKAPK2 Km app -3.1 Z
BMPR1B (ALK6) n/a 14.5 L PTK2B (FAK2) Km app 4.2 Z KIT D816V n/a 0.9 L FGFR4 Km app -3.1 Z
INSRR (IRR) Km app 14.1 Z CLK2 Km app 4.1 Z CAMK1 (CaMK1) 10 0.8 A CASK n/a -3.1 L
PLK2 Km app 14.1 Z STK24 (MST3) Km app 4.1 Z PTK6 (Brk) Km app 0.7 Z GRK5 Km app -3.2 Z
PRKACA (PKA) Km app 14.0 Z CAMK1D (CaMKI delta) Km app 4.1 Z CAMK2B (CaMKII beta) Km app 0.7 Z EGFR (ErbB1) T790M Km app -3.3 Z
EIF2AK2 (PKR) n/a 13.3 L INSR Km app 4.1 Z ACVR1 (ALK2) n/a 0.7 L PAK4 Km app -3.3 Z
PRKX Km app 12.5 Z IRAK1 Km app 4.0 A ABL1 H396P n/a 0.6 L DAPK3 (ZIPK) Km app -3.4 Z
FGR Km app 12.1 Z SRC N1 Km app 3.9 Z MERTK (cMER) A708S n/a 0.6 L RET M918T n/a -3.5 L
CLK1 Km app 11.7 Z SRPK2 Km app 3.9 Z MAPKAPK5 (PRAK) Km app 0.6 Z PRKCQ (PKC theta) Km app -3.7 Z
MARK3 Km app 11.4 Z RPS6KA6 (RSK4) Km app 3.8 Z AKT1 (PKB alpha) Km app 0.5 Z CAMKK1 (CAMKKA) n/a -3.8 L
PDGFRB (PDGFR beta) Km app 11.0 Z GRK6 Km app 3.7 Z NTRK3 (TRKC) Km app 0.4 Z FLT3 D835Y Km app -3.9 Z
PRKCN (PKD3) Km app 10.7 Z PKN1 (PRK1) Km app 3.6 Z ZAP70 Km app 0.3 Z ROCK2 Km app -4.1 Z
STK16 (PKL12) n/a 10.5 L MAP3K8 (COT) 100 3.5 Z CSNK1A1 (CK1 alpha 1) Km app 0.3 Z CHUK (IKK alpha) Km app -4.2 A
FES (FPS) Km app 10.4 Z FLT4 (VEGFR3) Km app 3.5 Z MYLK (MLCK) n/a 0.2 L AXL Km app -4.2 Z
ABL1 Km app 10.4 Z GRK4 Km app 3.5 Z MKNK2 (MNK2) n/a 0.2 L PIM2 Km app -4.3 Z
MUSK Km app 10.3 Z FRK (PTK5) Km app 3.4 Z AMPK (A1/B1/G3) n/a 0.2 L PAK1 Km app -4.4 Z
MAPK1 (ERK2) Km app 10.1 Z FYN A n/a 3.3 L MAP3K2 (MEKK2) n/a 0.1 L BMPR1A (ALK3) n/a -4.4 L
BRAF 100 9.9 Z CDK1/cyclin A2 n/a 3.3 L CDK8/cyclin C n/a 0.1 L STK4 (MST1) Km app -4.4 Z
IGF1R Km app 9.7 Z KIT V559D T670I n/a 3.1 L MARK2 Km app 0.1 Z PRKCH (PKC eta) Km app -4.6 Z
MAPK14 (p38 alpha) Km app 9.7 Z SPHK2 10 3.1 A ICK n/a 0.0 L SGKL (SGK3) Km app -4.6 Z
LCK Km app 9.6 Z FGFR3 G697C n/a 3.1 L FGFR2 Km app 0.0 Z PI4KB (PI4K beta) Km app -4.7 A
MAPK11 (p38 beta) Km app 9.5 Z RIPK2 n/a 3.1 L AKT2 (PKB beta) Km app 0.0 Z PRKCE (PKC epsilon) Km app -4.9 Z
SRC Km app 9.5 Z PAK6 Km app 3.0 Z EPHB2 Km app -0.1 Z PHKG1 Km app -5.0 Z
CHEK1 (CHK1) Km app 9.3 Z LYN B Km app 3.0 Z TGFBR2 n/a -0.1 L PDGFRA D842V Km app -5.0 Z
CAMK2D (CaMKII delta) Km app 9.3 Z DAPK2 n/a 2.9 L TEK (Tie2) Km app -0.1 Z PRKG2 (PKG2) Km app -5.1 Z
PLK1 Km app 9.2 Z EPHA4 Km app 2.9 Z AURKA (Aurora A) Km app -0.1 Z TYRO3 (RSE) Km app -5.1 Z
RET Y791F Km app 9.2 Z PIK3CG (p110 gamma) Km app 2.9 A KIT D816H n/a -0.2 L TAOK2 (TAO1) Km app -5.1 Z
FLT3 Km app 9.1 Z HIPK1 (Myak) Km app 2.8 Z KIT N822K n/a -0.2 L EPHB4 Km app -5.3 Z
MAPK10 (JNK3) 100 9.0 Z ADRBK2 (GRK3) Km app 2.8 Z PRKACG (PRKAC gamma) n/a -0.2 L AURKC (Aurora C) Km app -5.4 Z
CSNK2A2 (CK2 alpha 2) Km app 8.7 Z STK17B (DRAK2) n/a 2.7 L TEK (TIE2) Y1108F n/a -0.3 L JAK1 Km app -5.7 Z […]

T1 sequence (P48729 whole entry): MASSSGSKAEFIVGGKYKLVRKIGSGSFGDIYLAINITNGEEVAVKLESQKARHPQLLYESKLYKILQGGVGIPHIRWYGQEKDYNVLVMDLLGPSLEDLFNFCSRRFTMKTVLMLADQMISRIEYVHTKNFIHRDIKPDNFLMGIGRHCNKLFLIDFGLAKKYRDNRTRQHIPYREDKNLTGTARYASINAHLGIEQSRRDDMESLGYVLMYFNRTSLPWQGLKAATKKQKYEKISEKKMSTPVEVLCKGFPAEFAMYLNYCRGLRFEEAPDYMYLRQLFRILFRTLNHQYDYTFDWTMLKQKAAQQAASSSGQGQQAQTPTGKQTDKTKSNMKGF

Take `CN(C(=O)CN1CCOCC1)c1ccc2sc3c(-c4cccc5c(=O)cc(N6CC7CCC(C6)O7)oc45)cccc3c2c1` [NU5455]: 1 µM produced 0.3% inhibition.

The values above are taken from paper PMC6934184, “Selective DNA-PKcs inhibition extends the therapeutic index of localized radiotherapy and chemotherapy” (The Journal of Clinical Investigation, 2019).
